{"source": "patent US9169213B2", "about": "“Method of weight management” (Arena Pharmaceuticals, Inc., priority 2012, dated 2015)", "format_in_all_cases": "in vivo, human", "key": {"[1]": {"test": "Pooled patients with impaired fasting glucose (IFG) who were Week 12 responders: Week 52 outcomes", "procedure": "(§1) Tables 6 and 7, below, present weight loss, vital sign, and glycemic changes at Week 52 in pooled patients without diabetes, patients with T2DM, and pooled patients with impaired fasting glucose (IFG; ≧100 mg/dL) who were Week 12 responders."}, "[2]": {"test": "Pooled BLOOM and BLOSSOM Phase 3 studies: Week 52 outcomes by Week 12/Week 24 responder status, patients without T2DM", "procedure": "APD356-009 (“BLOOM”) was a 104-week, placebo controlled study that assessed the safety and efficacy of lorcaserin 10 mg BID in overweight and obese patients, with concurrent behavior modification. The primary efficacy objective during Year 1 was to evaluate weight loss; the primary objective during Year 2 was to assess the ability of lorcaserin to maintain body weight loss that was achieved during Year 1. At study start, each patient received randomized, double blind treatment assignments for Year 1 and for Year 2 (all patients were given a new randomization number for Year 2 to assure that patients and study personnel remained blinded to treatment assignments). All patients assigned to placebo during Year 1 (50% of randomized population) remained on placebo in Year 2. Patients assigned to lorcaserin during Year 1 were randomly assigned to stay on lorcaserin during Year 2 (⅔ of Year 1 lorcaserin patients) or to switch to placebo (⅓ of Year 1 lorcaserin patients).\nAPD356-011 (“BLOSSOM”) was a 52-week, placebo controlled study that evaluated the effect of two lorcaserin doses (10 mg BID and 10 mg QD) on categorical and total weight loss with concurrent behavior modification. Patients were randomized in a ratio of 2:1:2 to lorcaserin 10 mg BID, 10 mg QD, or placebo.\n(§2) An analysis of early weight loss was performed, at each visit after baseline through Week 24, as a predictor of ultimate weight loss success, as defined by achieving at least about 5% weight loss at 52 weeks, or at least about 10% weight loss at 52 weeks."}, "[3]": {"test": "BLOOM-DM (APD356-010) Phase 3 study: Week 52 outcomes by Week 12/Week 24 responder status, patients with type 2 diabetes mellitus", "procedure": "APD356-010 (BLOOM-DM) was a 52-week, placebo controlled study that evaluated the effect of two lorcaserin doses (10 mg BID and 10 mg QD) on categorical and total weight loss with concurrent behavior modification in 604 patients with type 2 diabetes mellitus managed with oral hypoglycemic agents. Randomization to the 10 mg once daily group was halted by protocol amendment in order to accelerate enrollment, resulting in final group sizes of 253 (placebo), 95 (lorcaserin QD) and 256 (lorcaserin BID).\nas §2\nTable 3 and Table 4 provide the sensitivity, specificity, positive predicted value (PPV) and negative predictive value (NPV) at Weeks 12 and 24 for at least about 5% and at least about 10% weight loss at Week 52 in different studies. The rounded percent weight loss at Week 12 for at least 5% and at least about 10% weight loss at Week 52 are about 5% and about 6%, respectively. Using the about 6% weight loss at Week 12 as a criterion enhances the PPV for both about 5% and about 10% categorical weight loss at Week 52, but at the expense of excluding about 10% and about 4% more of the about 5% categorical responders at Week 52 in patients without and with diabetes, respectively, based upon NPV. The rounded optimal thresholds at Week 24 for at least about 5% and at least about 10% weight loss at Week 52 are about 6% and about 9%, respectively. Using the 9% weight loss criterion at Week 24 enhances the PPV for both about 5% and about 10% categorical weight loss at Week 52, but at the expense of excluding about 19% and about 9% more of the about 5% categorical responders at Week 52 in patients without and with diabetes, respectively, based upon NPV. As described below, if at least about a 5% weight loss criterion is applied, patients achieving this milestone will achieve an average of about 10.8% weight loss in patients without diabetes and about 9.1% weight loss in patients with diabetes at Week 52.\nas §1"}, "[4]": {"conditions": "Week 12 responders with impaired fasting glucose (IFG) at baseline"}, "[5]": {"conditions": "Week 12 responders, patients with IFG, 10 mg BID"}, "[6]": {"conditions": "percent change from baseline at Week 52, Week 12 responders, patients with IFG, 10 mg BID"}, "[7]": {"conditions": "Week 12 Responder (≧5% weight loss), MITT with LOCF, 10 mg BID"}, "[8]": {"conditions": "Week 12 responders without diabetes"}, "[9]": {"conditions": "Week 12 responders, patients without T2DM, 10 mg BID"}, "[10]": {"conditions": "all patients without T2DM, MITT-LOCF"}, "[11]": {"conditions": "percent change from baseline at Week 52, Week 12 responders, patients without T2DM, 10 mg BID"}, "[12]": {"conditions": "Week 12 responders, patients with T2DM, 10 mg BID"}, "[13]": {"conditions": "all patients with T2DM, MITT-LOCF"}, "[14]": {"conditions": "percent change from baseline at Week 52, Week 12 responders, patients with T2DM, 10 mg BID"}}, "data": [{"substance": "(R)-8-chloro-1-methyl-2,3,4,5-tetrahydro-1H-3-benzazepine hydrochloride salt hemihydrate [drug]", "values": [{"measurement": "Week 52 reduction in A1C", "setting": "[1]; [4]", "value": 0.4, "unit": "%"}, {"measurement": "Week 52 reduction in FPG", "setting": "[1]; [4]", "value": 7.8, "unit": "mg/dL"}, {"measurement": "A1C W52 Change", "setting": "[1]; [5]", "value": "−0.11", "unit": "%"}, {"measurement": "DBP W52 Change", "setting": "[1]; [5]", "value": "−1.5", "unit": "mmHg"}, {"measurement": "FPG W52 Change", "setting": "[1]; [5]", "value": -7.8, "unit": "mg/dL"}, {"measurement": "Heart Rate W52 Change", "setting": "[1]; [5]", "value": "−3.7", "unit": "bpm"}, {"measurement": "SBP W52 Change", "setting": "[1]; [5]", "value": "−1.7", "unit": "mmHg"}, {"measurement": "Weight Loss ≧5% (%) at W52", "setting": "[1]; [5]", "value": 88.8, "unit": "%"}, {"measurement": "Weight Loss ≧10% (%) at W52", "setting": "[1]; [5]", "value": 52.4, "unit": "%"}, {"measurement": "Weight W52 Change", "setting": "[1]; [5]", "value": -11.2, "unit": "kg"}, {"measurement": "HDL-C (mg/dL)* W52 Change", "setting": "[1]; [6]", "value": 2.1, "unit": "%"}, {"measurement": "LDL-C (mg/dL)* W52 Change", "setting": "[1]; [6]", "value": 2.5, "unit": "%"}, {"measurement": "Total Cholesterol (mg/dL)* W52 Change", "setting": "[1]; [6]", "value": "−2.3", "unit": "%"}, {"measurement": "Triglycerides (mg/dL)* W52 Change", "setting": "[1]; [6]", "value": "−15.5", "unit": "%"}, {"measurement": "Week 52 Weight 5% Responder", "setting": "[2]; [7]", "value": 86, "unit": "%"}, {"measurement": "Week 52 Weight 10% Responder", "setting": "[2]; [7]", "value": 50, "unit": "%"}, {"measurement": "Week 52 reduction in diastolic blood pressure", "setting": "[2]; [8]", "value": 2.5, "unit": "mmHg"}, {"measurement": "Week 52 reduction in heart rate", "setting": "[2]; [8]", "value": 2.5, "unit": "BPM"}, {"measurement": "Week 52 reduction in systolic blood pressure", "setting": "[2]; [8]", "value": 3.4, "unit": "mmHg"}, {"measurement": "A1C W52 Change", "setting": "[2]; [9]", "value": "−0.18", "unit": "%"}, {"measurement": "DBP W52 Change", "setting": "[2]; [9]", "value": "−2.5", "unit": "mmHg"}, {"measurement": "FPG W52 Change", "setting": "[2]; [9]", "value": -2.2, "unit": "mg/dL"}, {"measurement": "Heart Rate W52 Change", "setting": "[2]; [9]", "value": "−2.5", "unit": "bpm"}, {"measurement": "SBP W52 Change", "setting": "[2]; [9]", "value": "−3.4", "unit": "mmHg"}, {"measurement": "Weight Loss ≧5% (%) at W52", "setting": "[2]; [9]", "value": 85.5, "unit": "%"}, {"measurement": "Weight Loss ≧10% (%) at W52", "setting": "[2]; [9]", "value": 49.8, "unit": "%"}, {"measurement": "proportion achieving ≧5% weight loss at Week 52", "setting": "[2]; [10]", "value": 47, "unit": "%"}, {"measurement": "weight loss at Week 52", "setting": "[2]; [10]", "value": 5.8, "unit": "kg"}, {"measurement": "Week 12 Responder (at least 5% weight loss at Week 12), percentage of patients", "setting": "[2]; of patients with observed Week 12 data, without diabetes, 10 mg BID", "value": 49.3, "unit": "%"}, {"measurement": "HDL-C (mg/dL)* W52 Change", "setting": "[2]; [11]", "value": 4.6, "unit": "%"}, {"measurement": "LDL-C (mg/dL)* W52 Change", "setting": "[2]; [11]", "value": 1.1, "unit": "%"}, {"measurement": "Total Cholesterol (mg/dL)* W52 Change", "setting": "[2]; [11]", "value": "−1.7", "unit": "%"}, {"measurement": "Triglycerides (mg/dL)* W52 Change", "setting": "[2]; [11]", "value": "−14.5", "unit": "%"}, {"measurement": "Week 52 Weight 5% Responder", "setting": "[3]; [7]", "value": 71, "unit": "%"}, {"measurement": "Week 52 Weight 10% Responder", "setting": "[3]; [7]", "value": 36, "unit": "%"}, {"measurement": "Week 52 reduction in diastolic blood pressure", "setting": "[3]; Week 12 responders with T2DM", "value": 1.9, "unit": "mmHg"}, {"measurement": "Week 52 reduction in heart rate", "setting": "[3]; Week 12 responders with T2DM", "value": 3.2, "unit": "BPM"}, {"measurement": "Week 52 reduction in systolic blood pressure", "setting": "[3]; Week 12 responders with T2DM", "value": 2.6, "unit": "mmHg"}, {"measurement": "A1C W52 Change", "setting": "[3]; [12]", "value": "−1.2", "unit": "%"}, {"measurement": "DBP W52 Change", "setting": "[3]; [12]", "value": "−1.9", "unit": "mmHg"}, {"measurement": "FPG W52 Change", "setting": "[3]; [12]", "value": -29.3, "unit": "mg/dL"}, {"measurement": "Heart Rate W52 Change", "setting": "[3]; [12]", "value": "−3.2", "unit": "bpm"}, {"measurement": "SBP W52 Change", "setting": "[3]; [12]", "value": "−2.6", "unit": "mmHg"}, {"measurement": "Weight Loss ≧5% (%) at W52", "setting": "[3]; [12]", "value": 70.5, "unit": "%"}, {"measurement": "Weight Loss ≧10% (%) at W52", "setting": "[3]; [12]", "value": 35.9, "unit": "%"}, {"measurement": "Weight W52 Change", "setting": "[3]; [12]", "value": -9.3, "unit": "kg"}, {"measurement": "proportion achieving ≧5% weight loss at Week 52", "setting": "[3]; [13]", "value": 38, "unit": "%"}, {"measurement": "weight loss at Week 52", "setting": "[3]; [13]", "value": 4.7, "unit": "kg"}, {"measurement": "Week 52 reduction in A1C", "setting": "[3]; diabetic Week 12 responders", "value": 1.2, "unit": "%"}, {"measurement": "Week 52 reduction in FPG", "setting": "[3]; diabetic Week 12 responders", "value": 29.3, "unit": "mg/dL"}, {"measurement": "Week 12 Responder (at least 5% weight loss at Week 12), percentage of patients", "setting": "[3]; of patients with observed Week 12 data, type 2 diabetes, 10 mg BID", "value": 35.9, "unit": "%"}, {"measurement": "HDL-C (mg/dL)* W52 Change", "setting": "[3]; [14]", "value": 8.8, "unit": "%"}, {"measurement": "LDL-C (mg/dL)* W52 Change", "setting": "[3]; [14]", "value": 1.4, "unit": "%"}, {"measurement": "Total Cholesterol (mg/dL)* W52 Change", "setting": "[3]; [14]", "value": "−0.7", "unit": "%"}, {"measurement": "Triglycerides (mg/dL)* W52 Change", "setting": "[3]; [14]", "value": "−17.8", "unit": "%"}]}]}
